# Assay results: ChEMBL document CHEMBL1121791, “Computer-assisted structure-activity studies of chemical carcinogens. Aromatic amines” (J Med Chem, 1981)
# How the values were obtained:
# Format in all cases: functional, organism-based
# [1] = tested on: Rattus norvegicus; assay: Carcinogenic activity on other sites after oral administration
# [2] = tested on: Rattus norvegicus; assay: Carcinogenic activity on liver after oral administration
# [3] = tested on: Rattus norvegicus; assay: Carcinogenic activity on all sites after oral administration
# [4] = tested on: Rattus norvegicus; assay: Carcinogenic activity on mixed data after oral administration
# [5] = tested on: Rattus norvegicus; assay: Carcinogenic activity on breast after oral administration of the compound
# [6] = tested on: Rattus norvegicus; assay: Carcinogenic activity on ear duct after oral administration
SMILES,Activity [1],Activity [2],Activity [3],Activity [4],Activity [5],Activity [6]
CC(=O)Nc1nc(-c2ccc([N+](=O)[O-])o2)no1,Carcinogenic activity,Carcinogenic activity,Carcinogenic activity,,,
CC(=O)Nc1ccc2c(c1)Sc1ccccc1C2,Carcinogenic activity,,Carcinogenic activity,Carcinogenic activity,Carcinogenic activity,Carcinogenic activity
O=CNc1nc(-c2ccc([N+](=O)[O-])o2)cs1,Carcinogenic activity,,Carcinogenic activity,,Carcinogenic activity,
CC(=O)Nc1ccc2c(c1)oc1ccccc12,,,Carcinogenic activity,,Carcinogenic activity,Carcinogenic activity
COc1ccc(/N=N/c2ccc(N)c(OC)c2)cc1,Carcinogenic activity,Carcinogenic activity,Carcinogenic activity,,,
CN(C)c1ccc(/C=C/c2ccc(F)cc2)cc1,,,Carcinogenic activity,,,Carcinogenic activity
CN(C)c1ccc2cc3ccc(N(C)C)cc3nc2c1,,Carcinogenic activity,Carcinogenic activity,,,
CC(=O)Nc1ccc2c(c1)Cc1cccc(F)c1-2,,,Carcinogenic activity,,Carcinogenic activity,Carcinogenic activity
Nc1cc2ccccc2cc1[N+](=O)[O-],Carcinogenic activity,,Carcinogenic activity,,,
Nc1cc2ccccc2c2ccccc12,,,Carcinogenic activity,,Carcinogenic activity,
CN(C)Nc1nc(-c2ccc([N+](=O)[O-])o2)cs1,Carcinogenic activity,,Carcinogenic activity,,,
Nc1nc[nH]n1,Carcinogenic activity,Carcinogenic activity,Carcinogenic activity,,,
Nc1nc(N)nc(-c2ccc([N+](=O)[O-])o2)n1,,,Carcinogenic activity,,Carcinogenic activity,
O=C(O)CCC(=O)Nc1ccc2c(c1)Cc1ccccc1-2,,Carcinogenic activity,Carcinogenic activity,,,
Cc1cccc(/C=C/c2ccc(N(C)C)cc2)c1,,,Carcinogenic activity,,,Carcinogenic activity
CC(=O)N(O)c1ccc(-c2ccccc2)cc1,Carcinogenic activity,,Carcinogenic activity,Carcinogenic activity,Carcinogenic activity,Carcinogenic activity
Nc1ccc2c(c1)Cc1cc(N)ccc1-2,,,Carcinogenic activity,,Carcinogenic activity,
CC(=O)Nc1ccc2c(c1)Cc1ccccc1S2,Carcinogenic activity,,Carcinogenic activity,Carcinogenic activity,Carcinogenic activity,Carcinogenic activity
Nc1ccc(/N=N/c2ccccc2)cc1,Carcinogenic activity,,Carcinogenic activity,,,
O=CNc1ccc2c(c1)Cc1ccccc1-2,,,Carcinogenic activity,,Carcinogenic activity,Carcinogenic activity
Cc1cccc(/N=N/c2cc(C)ccc2N)c1,,Carcinogenic activity,Carcinogenic activity,,,
Nc1ccc(Cc2ccc(N)c(Cl)c2)cc1Cl,Carcinogenic activity,Carcinogenic activity,Carcinogenic activity,,,

SMILES,Activity [1],Activity [2],Activity [3],Activity [4],Activity [5],Activity [6]
CC(=O)N(O)c1ccc(/C=C/c2ccccc2)cc1,Carcinogenic activity,,Carcinogenic activity,Carcinogenic activity,Carcinogenic activity,Carcinogenic activity
Nc1ccc(-c2cccc(F)c2)cc1,,,Carcinogenic activity,,Carcinogenic activity,
CN(C)c1ccc(/C=C/c2ccccc2)cc1,,,Carcinogenic activity,,,Carcinogenic activity
COc1cc(/N=N/c2ccccc2)ccc1N,Carcinogenic activity,Carcinogenic activity,Carcinogenic activity,Carcinogenic activity,,Carcinogenic activity
Cc1cc2ccccc2cc1N,Carcinogenic activity,,Carcinogenic activity,,Carcinogenic activity,
CCN(CC)c1ccc2c(c1)Cc1ccccc1-2,Carcinogenic activity,,Carcinogenic activity,,,
Nc1ccc(-c2ccccc2)cc1F,,,Carcinogenic activity,,Carcinogenic activity,
Nc1ccc(-c2ccc(N)c(Cl)c2)cc1Cl,Carcinogenic activity,,Carcinogenic activity,Carcinogenic activity,Carcinogenic activity,Carcinogenic activity
Nc1ccc(/C=C/c2ccc3ccccc3n2)cc1,,,Carcinogenic activity,,,Carcinogenic activity
ONc1ccc(/C=C/c2ccccc2)cc1,Carcinogenic activity,,Carcinogenic activity,,,
CC(=O)Nc1ccc(/C=C/c2ccccc2)cc1,,,Carcinogenic activity,,Carcinogenic activity,Carcinogenic activity
CC(=O)Nc1cc2c(cc1I)-c1ccccc1C2,,,Carcinogenic activity,,,Carcinogenic activity
CC(=O)Nc1cc(F)c2c(c1)Cc1ccccc1-2,,,Carcinogenic activity,,Carcinogenic activity,Carcinogenic activity
Nc1ccc2c(c1)CCc1ccccc1-2,Carcinogenic activity,,Carcinogenic activity,Carcinogenic activity,,Carcinogenic activity
Nc1ccc2ccc3ccccc3c2c1,,,Carcinogenic activity,,Carcinogenic activity,
ONc1cccc2ccccc12,Carcinogenic activity,,Carcinogenic activity,,,
Cc1cc(-c2ccccc2)ccc1N,Carcinogenic activity,,Carcinogenic activity,,,Carcinogenic activity
Cn1cnc([N+](=O)[O-])c1Sc1ncnc2[nH]cnc12,Carcinogenic activity,,Carcinogenic activity,,,Carcinogenic activity
CC(=O)Nc1ccc2c(c1)Cc1cccc(NC(C)=O)c1-2,,,Carcinogenic activity,,Carcinogenic activity,
CC(=O)Nc1ccc2c(c1F)Cc1ccccc1-2,,,Carcinogenic activity,,Carcinogenic activity,Carcinogenic activity
NCC(=O)Nc1ccc2c(c1)-c1ccccc1C2,,Carcinogenic activity,Carcinogenic activity,,,
CN(C)c1ccc(/C=C/c2ccc(Cl)cc2)cc1,,,Carcinogenic activity,,,Carcinogenic activity
